Tests used:
[1] = system: human neuroglioma U87-MG xenograft; assay: Growth of U87-MG xenograft subcutaneously transplanted in nude mouse; type: in vivo; settings: 50 mg/kg p.o. once a day
Procedure: Well-developed tumors in nude mice were cut into 1.5 mm3 fragments and transplanted s.c. into the right flank of nude mice under sterile conditions. The diameters of subcutaneously transplanted tumours in nude mice were measured with a vernier calipe. […] Control groups were given the same amount of blank solvent, and treatment groups received tested compounds (p.o.). Compounds were administrated once a day for three weeks. Throughout the experiment, the sizes of the tumours were measured twice per week and meanwile the body weights of mice were weighed. The tumour volume (TV) was calculated as follows: TV=½×a×b2, wherein a and b represent the length and width, respectively. The individual relative tumour volume (RTV) was calculated as follows: RTV=Vt/V0, where V0 is the volume at the beginning of the treatment and Vt is the volume measured every time. Evaluation index of antitumor activity was relative tumor proliferation rate T/C (%), the calculation formula of which was as follows: T/C (%)=(TRTV/CRTV)×100%, TRTV:RTV of treatment group; CRTV:RTV of negative control group.

LG-NCI-H460 = assay: Proliferation of human cancer cell panel; type: cell-based; settings: read-out: inhibitory activity on proliferation
Excerpt: (§1) I-30 and I-33 were selected to test their activity on the proliferation of human cancer cells originated from different tissue types.

O-SKOV-3 = assay: Proliferation of human cancer cell panel; type: cell-based; settings: read-out: inhibitory activity on proliferation
Excerpt: as §1

[2] = system: gastric cancer cells G-MKN-45; assay: Proliferation of human cancer cell panel; type: cell-based; settings: read-out: inhibitory activity on proliferation
Excerpt: as §1

[3] = system: colorectal cancer cells C-LOVO; assay: Proliferation of human cancer cell panel; type: cell-based; settings: read-out: inhibitory activity on proliferation
Excerpt: as §1

[4] = system: rhabdomyosarcoma cells S-RH30; assay: Proliferation of human cancer cell panel; type: cell-based; settings: read-out: inhibitory activity on proliferation
Excerpt: as §1

LG-NCI-H23 = assay: Proliferation of human cancer cell panel; type: cell-based; settings: read-out: inhibitory activity on proliferation
Excerpt: as §1

[5] = system: endometrial cancer cells E-RL95-2; assay: Proliferation of human cancer cell panel; type: cell-based; settings: read-out: inhibitory activity on proliferation
Excerpt: as §1

[6] = system: colon cancer cells C-HCT-116; assay: Proliferation of human cancer cell panel; type: cell-based; settings: read-out: inhibitory activity on proliferation
Excerpt: as §1

P-PC-3 = assay: Proliferation of human cancer cell panel; type: cell-based; settings: read-out: inhibitory activity on proliferation
Excerpt: as §1

B-BT474 = assay: Proliferation of human cancer cell panel; type: cell-based; settings: read-out: inhibitory activity on proliferation
Excerpt: as §1

B-MCF-7 = assay: Proliferation of human cancer cell panel; type: cell-based; settings: read-out: inhibitory activity on proliferation
Excerpt: as §1

[7] = system: hepatoma cells L-BEL-7402; assay: Proliferation of human cancer cell panel; type: cell-based; settings: read-out: inhibitory activity on proliferation
Excerpt: as §1

PI3Kα = PI3Kα (Homo sapiens (Human), UniProt P42336); assay: Inhibition on PI3K kinase activity (Kinase-Glo Plus luminescent assay); type: biochemical; settings: 2 μM ATP, 1 hour at room temperature
Procedure: The activity of purified kinase was detected with Kinase-Glo® Plus kinase luminescent assay by measuring the amount of the remaining […] in the solution after the kinase reaction was completed. […] After reaction was performed for 1 hour at room temperature, 10 μL of Kinase Glo-Plus mixture was added and incubated for 1 hour to quench the reaction.

KYSE450 = assay: Proliferation of human esophagus cancer cells; type: cell-based
Excerpt: (§2) Compounds BYL719 (shown below), CYH33 (compound I-33) and I-27 were selected to test their activity on the proliferation of 11 species of human esophagus cancer cells.
(§3) The results reported in FIG. 3 were the average GI50 value and SD value of three experiments. The results were arranged according to the GI50 value of CYH33.

KYSE180 = assay: Proliferation of human esophagus cancer cells; type: cell-based
Excerpt: as §2, §3

KYSE150 = assay: Proliferation of human esophagus cancer cells; type: cell-based
Excerpt: as §2, §3

KYSE2 = assay: Proliferation of human esophagus cancer cells; type: cell-based
Excerpt: as §2, §3

KYSE30 = assay: Proliferation of human esophagus cancer cells; type: cell-based
Excerpt: as §2, §3

KYSE140 = assay: Proliferation of human esophagus cancer cells; type: cell-based
Excerpt: as §2, §3

Detroit 562 = assay: Proliferation of human esophagus cancer cells; type: cell-based
Excerpt: as §2, §3

KYSE410 = assay: Proliferation of human esophagus cancer cells; type: cell-based
Excerpt: as §2, §3

KYSE70 = assay: Proliferation of human esophagus cancer cells; type: cell-based
Excerpt: as §2, §3

KYSE510 = assay: Proliferation of human esophagus cancer cells; type: cell-based
Excerpt: as §2, §3

COLO680N = assay: Proliferation of human esophagus cancer cells; type: cell-based; settings: COLO-680N
Excerpt: as §2, §3

[8] = system: human rhabdomyosarcoma Rh30 cells; assay: Proliferation of Rh30 cells (sulforhodamine B); type: cell-based; settings: Homo sapiens, Rh30, 72 h; read-out: IC50 against proliferation of Rh30 cells
Procedure, shortened: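 Rh30 cells (3000/well) were treated after adherence with compound at 10, 3, 1, 0.3 or 0.1 μM for 72 h. TCA-fixed cells were stained with sulforhodamine B, dye solubilised in Tris buffer and OD read at 560 nm.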

PI3Kα, sequence (P42336 whole entry): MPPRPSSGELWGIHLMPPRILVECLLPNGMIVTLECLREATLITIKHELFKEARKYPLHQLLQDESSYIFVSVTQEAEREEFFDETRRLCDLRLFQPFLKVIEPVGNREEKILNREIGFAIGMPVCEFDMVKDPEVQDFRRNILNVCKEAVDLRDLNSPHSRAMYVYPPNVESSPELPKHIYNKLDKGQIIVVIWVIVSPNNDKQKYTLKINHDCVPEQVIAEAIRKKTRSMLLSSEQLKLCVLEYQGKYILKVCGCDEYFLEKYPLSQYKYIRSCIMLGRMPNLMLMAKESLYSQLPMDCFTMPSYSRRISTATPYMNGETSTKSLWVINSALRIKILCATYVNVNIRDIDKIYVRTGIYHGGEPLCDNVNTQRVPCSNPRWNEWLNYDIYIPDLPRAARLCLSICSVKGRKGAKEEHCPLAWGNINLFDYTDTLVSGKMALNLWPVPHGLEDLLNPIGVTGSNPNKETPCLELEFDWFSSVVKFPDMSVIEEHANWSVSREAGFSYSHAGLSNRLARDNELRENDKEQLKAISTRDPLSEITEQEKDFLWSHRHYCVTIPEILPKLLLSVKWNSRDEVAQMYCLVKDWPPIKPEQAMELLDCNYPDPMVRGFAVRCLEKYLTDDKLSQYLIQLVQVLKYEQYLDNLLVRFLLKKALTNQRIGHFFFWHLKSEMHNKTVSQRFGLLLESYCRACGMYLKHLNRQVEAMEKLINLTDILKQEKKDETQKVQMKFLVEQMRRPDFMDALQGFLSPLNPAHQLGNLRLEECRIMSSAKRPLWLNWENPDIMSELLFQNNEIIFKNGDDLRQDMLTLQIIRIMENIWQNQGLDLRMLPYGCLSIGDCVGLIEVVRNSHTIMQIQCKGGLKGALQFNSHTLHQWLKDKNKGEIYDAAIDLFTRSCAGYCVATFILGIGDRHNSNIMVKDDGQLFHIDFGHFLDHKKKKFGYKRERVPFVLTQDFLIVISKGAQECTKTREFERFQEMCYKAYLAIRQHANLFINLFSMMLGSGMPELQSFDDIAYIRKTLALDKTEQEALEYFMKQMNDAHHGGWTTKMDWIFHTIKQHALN
PI3Kα, sequence (P27986 whole entry partner): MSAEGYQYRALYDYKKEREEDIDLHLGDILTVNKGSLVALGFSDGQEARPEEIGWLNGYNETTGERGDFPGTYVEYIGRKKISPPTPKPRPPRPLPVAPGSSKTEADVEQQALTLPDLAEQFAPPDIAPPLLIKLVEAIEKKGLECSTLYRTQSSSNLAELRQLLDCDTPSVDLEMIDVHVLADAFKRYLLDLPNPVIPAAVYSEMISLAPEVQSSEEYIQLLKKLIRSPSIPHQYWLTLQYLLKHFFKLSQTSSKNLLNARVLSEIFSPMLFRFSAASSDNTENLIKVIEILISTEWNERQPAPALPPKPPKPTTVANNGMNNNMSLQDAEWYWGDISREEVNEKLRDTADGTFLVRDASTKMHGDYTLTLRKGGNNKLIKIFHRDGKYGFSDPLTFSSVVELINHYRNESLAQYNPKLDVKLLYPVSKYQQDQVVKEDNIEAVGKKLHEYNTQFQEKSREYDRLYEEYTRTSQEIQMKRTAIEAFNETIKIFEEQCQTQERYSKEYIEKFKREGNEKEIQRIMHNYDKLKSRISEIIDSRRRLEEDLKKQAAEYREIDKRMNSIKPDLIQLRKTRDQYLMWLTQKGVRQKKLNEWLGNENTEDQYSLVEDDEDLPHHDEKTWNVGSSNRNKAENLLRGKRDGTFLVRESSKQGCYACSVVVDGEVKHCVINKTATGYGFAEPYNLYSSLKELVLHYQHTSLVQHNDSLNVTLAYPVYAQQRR

CS(=O)(=O)N1CCN(Cc2cc3nc(-c4cccc5[nH]ncc45)nc(N4CCOCC4)c3s2)CC1 [GDC0941, reference compound]
Relative tumor proliferation rate T/C ([1]; d0): 100.00%
Relative tumor proliferation rate T/C ([1]; d3): 75.12%
Relative tumor proliferation rate T/C ([1]; d7): 79.34%
Relative tumor proliferation rate T/C ([1]; d10): 74.75%
Relative tumor proliferation rate T/C ([1]; d14): 56.86%
Relative tumor proliferation rate T/C ([1]; d17): 53.57%
Relative tumor proliferation rate T/C ([1]; d21): 51.40%
IC50 (LG-NCI-H460): 1660 nM
IC50 (O-SKOV-3): 316 nM
IC50 [2]: 1670 nM
IC50 [3]: 517 nM
IC50 [4]: 478 nM
IC50 (LG-NCI-H23): 1200 nM
IC50 [5]: 2200 nM
IC50 [6]: 8.1 µM
IC50 (P-PC-3): 636 nM
IC50 (B-BT474): 256 nM
IC50 (B-MCF-7): 519 nM
IC50 [7]: 3.2 µM

CS(=O)(=O)N1CCN(Cc2cc3c(N4CCOCC4)nc(-c4cnc(N)cc4C(F)(F)F)nn3c2)CC1 [Compound I-27, 5-(6-((4-(methylsulfonyl)piperazin-1-yl)methyl)-4-morpholinopyrrolo [2,1-f][1,2,4]triazin-2-yl)-4-(trifluoromethyl)pyridin-2-amine]
IC50 (PI3Kα): 8.37 nM
GI50 (KYSE450; KYSE-450, KYSE450, 1st experiment): 1230 nM
GI50 (KYSE450; KYSE-450, KYSE450, 2nd experiment): 1000 nM
GI50 (KYSE450; KYSE-450, KYSE450, 3rd experiment): 932 nM
GI50 (KYSE450; KYSE-450, KYSE450, mean of three experiments): 1050 nM
GI50 (KYSE180; KYSE-180, KYSE180, 1st experiment): 100 nM
GI50 (KYSE180; KYSE-180, KYSE180, 2nd experiment): 169 nM
GI50 (KYSE180; KYSE-180, KYSE180, 3rd experiment): 77 nM
GI50 (KYSE180; KYSE-180, KYSE180, mean of three experiments): 115 nM
GI50 (KYSE150; KYSE-150, KYSE150, 1st experiment): 202 nM
GI50 (KYSE150; KYSE-150, KYSE150, 2nd experiment): 276 nM
GI50 (KYSE150; KYSE-150, KYSE150, 3rd experiment): 150 nM
GI50 (KYSE150; KYSE-150, KYSE150, mean of three experiments): 209 nM
GI50 (KYSE2; KYSE2, 1st experiment): 255 nM
GI50 (KYSE2; KYSE2, 2nd experiment): 165 nM
GI50 (KYSE2; KYSE2, 3rd experiment): 310 nM
GI50 (KYSE2; KYSE2, mean of three experiments): 243 nM
GI50 (KYSE30; KYSE-30, KYSE30, 1st experiment): 2350 nM
GI50 (KYSE30; KYSE-30, KYSE30, 2nd experiment): 1100 nM
GI50 (KYSE30; KYSE-30, KYSE30, 3rd experiment): 1070 nM
GI50 (KYSE30; KYSE-30, KYSE30, mean of three experiments): 1510 nM
GI50 (KYSE140; KYSE-140, KYSE140, 1st experiment): 898 nM
GI50 (KYSE140; KYSE-140, KYSE140, 2nd experiment): 638 nM
GI50 (KYSE140; KYSE-140, KYSE140, 3rd experiment): 792 nM
GI50 (KYSE140; KYSE-140, KYSE140, mean of three experiments): 776 nM
GI50 (Detroit 562; Detroit 562, Detroit 562, 1st experiment): 580 nM
GI50 (Detroit 562; Detroit 562, Detroit 562, 2nd experiment): 527 nM
GI50 (Detroit 562; Detroit 562, Detroit 562, 3rd experiment): 607 nM
GI50 (Detroit 562; Detroit 562, Detroit 562, mean of three experiments): 571 nM
GI50 (KYSE410; KYSE-410, KYSE410, 1st experiment): 468 nM
GI50 (KYSE410; KYSE-410, KYSE410, 2nd experiment): 959 nM
GI50 (KYSE410; KYSE-410, KYSE410, 3rd experiment): 229 nM
GI50 (KYSE410; KYSE-410, KYSE410, mean of three experiments): 552 nM
GI50 (KYSE70; KYSE-70, KYSE70, 1st experiment): 109 nM
GI50 (KYSE70; KYSE-70, KYSE70, 2nd experiment): 59 nM
GI50 (KYSE70; KYSE-70, KYSE70, 3rd experiment): 112 nM
GI50 (KYSE70; KYSE-70, KYSE70, mean of three experiments): 93 nM
GI50 (KYSE510; KYSE-510, KYSE510, 1st experiment): 247 nM
GI50 (KYSE510; KYSE-510, KYSE510, 2nd experiment): 390 nM
GI50 (KYSE510; KYSE-510, KYSE510, 3rd experiment): 204 nM
GI50 (KYSE510; KYSE-510, KYSE510, mean of three experiments): 280 nM
GI50 (COLO680N; 1st experiment): 959 nM
GI50 (COLO680N; 2nd experiment): 915 nM
GI50 (COLO680N; 3rd experiment): 917 nM
GI50 (COLO680N; mean of three experiments): 930 nM
IC50 [8]: 730 nM

CCNC(=O)Nc1cc(C(F)(F)F)c(-c2nc(N3CCOCC3)c3cc(CN4CCN(S(C)(=O)=O)CC4)cn3n2)cn1 [Compound I-30, 1-ethyl-3-(5-(6-((4-(methylsulfonyl)piperazin-1-yl)methyl)-4-morpholinopyrrolo[2,1-f][1,2,4]triazin-2-yl)-4-(trifluoromethyl)pyridin-2-yl)urea]
IC50 (PI3Kα): 8.19 nM
IC50 [8]: 820 nM
IC50 (LG-NCI-H460): 660 nM
IC50 (O-SKOV-3): 46 nM
IC50 [2]: 1550 nM
IC50 [3]: 493 nM
IC50 [4]: 256 nM
IC50 (LG-NCI-H23): 890 nM
IC50 [5]: 2000 nM
IC50 [6]: 9.7 µM
IC50 (P-PC-3): 601 nM
IC50 (B-BT474): 32 nM
IC50 (B-MCF-7): 2510 nM
IC50 [7]: 3.2 µM
